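Results reflect a 48-hour exposure of cells in 96-well plates to compound at five concentrations. GI50 is the concentration that inhibits growth by half. TGI is the concentration that stops growth completely.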
Key:
Assay in all cases: growth of human tumour cells (NCI), 48 h
HCC-2998 colon = system: HCC-2998 colon
SK-MEL-28 melanoma = system: SK-MEL-28 melanoma
SF-295 CNS = system: SF-295 CNS
OVCAR-3 ovarian = system: OVCAR-3 ovarian
PC-3 prostate = system: PC-3 prostate
SR leukemia = system: SR leukemia
M14 melanoma = system: M14 melanoma
MOLT-4 leukemia = system: MOLT-4 leukemia
HOP-62 NSCLC = system: HOP-62 NSCLC
SNB-19 CNS = system: SNB-19 CNS
HS 578T breast = system: HS 578T breast
OVCAR-5 ovarian = system: OVCAR-5 ovarian
LOX IMVI melanoma = system: LOX IMVI melanoma
HCT-116 colon = system: HCT-116 colon
SF-268 CNS = system: SF-268 CNS
HOP-92 NSCLC = system: HOP-92 NSCLC
SF-539 CNS = system: SF-539 CNS
NCI-H522 lung = system: NCI-H522 lung
CAKI-1 renal = system: CAKI-1 renal
SNB-75 CNS = system: SNB-75 CNS
HL-60(TB) leukemia = system: HL-60(TB) leukemia
SK-OV-3 ovarian = system: SK-OV-3 ovarian
RPMI-8226 leukemia = system: RPMI-8226 leukemia
UO-31 renal = system: UO-31 renal
MCF7 breast = system: MCF7 breast
OVCAR-8 ovarian = system: OVCAR-8 ovarian
NCI-H226 lung = system: NCI-H226 lung
786-0 renal = system: 786-0 renal
COLO 205 colon = system: COLO 205 colon
A549 NSCLC = system: A549 NSCLC
SW-620 colon = system: SW-620 colon
RXF 393 renal = system: RXF 393 renal
SK-MEL-2 melanoma = system: SK-MEL-2 melanoma
NCI/ADR-RES ovarian = system: NCI/ADR-RES ovarian
U251 CNS = system: U251 CNS
CCRF-CEM leukemia = system: CCRF-CEM leukemia
K-562 leukemia = system: K-562 leukemia
NCI-H23 lung = system: NCI-H23 lung
IGROV1 ovarian = system: IGROV1 ovarian
DU-145 prostate = system: DU-145 prostate
NCI-H460 lung = system: NCI-H460 lung
A498 renal = system: A498 renal
T-47D breast = system: T-47D breast
HT29 colon = system: HT29 colon
HCT-15 colon = system: HCT-15 colon
MDA-MB-231 breast = system: MDA-MB-231 breast
ACHN renal = system: ACHN renal
MALME-3M melanoma = system: MALME-3M melanoma
OVCAR-4 ovarian = system: OVCAR-4 ovarian
BT-549 breast = system: BT-549 breast
UACC-62 melanoma = system: UACC-62 melanoma
MDA-MB-435 = system: MDA-MB-435
SN12C renal = system: SN12C renal
SK-MEL-5 melanoma = system: SK-MEL-5 melanoma
KM12 colon = system: KM12 colon
UACC-257 melanoma = system: UACC-257 melanoma

COC[C@@H](N=C1NC(=O)/C(=C/c2ccc3ncccc3c2)S1)c1ccccc1
GI50 (HCC-2998 colon): 12.3 µM | TGI (HCC-2998 colon): > 25 µM | GI50 (SK-MEL-28 melanoma): 18.8 µM | TGI (SK-MEL-28 melanoma): > 25 µM | GI50 (SF-295 CNS): 8.71 µM | TGI (SF-295 CNS): > 25 µM | GI50 (OVCAR-3 ovarian): 9.38 µM | TGI (OVCAR-3 ovarian): > 25 µM | GI50 (PC-3 prostate): 12.1 µM | TGI (PC-3 prostate): > 25 µM | GI50 (SR leukemia): 3.64 µM | TGI (SR leukemia): 15.6 µM | GI50 (M14 melanoma): 13 µM | TGI (M14 melanoma): > 25 µM | GI50 (MOLT-4 leukemia): 8.88 µM | TGI (MOLT-4 leukemia): > 25 µM | GI50 (HOP-62 NSCLC): 11.7 µM | TGI (HOP-62 NSCLC): > 25 µM | GI50 (SNB-19 CNS): 8.82 µM | TGI (SNB-19 CNS): > 25 µM | GI50 (HS 578T breast): 7.43 µM | TGI (HS 578T breast): > 23.2 µM | GI50 (OVCAR-5 ovarian): > 25 µM | TGI (OVCAR-5 ovarian): > 25 µM | GI50 (LOX IMVI melanoma): 9.73 µM | TGI (LOX IMVI melanoma): > 25 µM | GI50 (HCT-116 colon): 8.73 µM | TGI (HCT-116 colon): > 25 µM | GI50 (SF-268 CNS): 11.8 µM | TGI (SF-268 CNS): > 25 µM | GI50 (HOP-92 NSCLC): 5.07 µM | TGI (HOP-92 NSCLC): > 21.1 µM | GI50 (SF-539 CNS): 7.36 µM | TGI (SF-539 CNS): > 24 µM | GI50 (NCI-H522 lung): 7.7 µM | TGI (NCI-H522 lung): > 23.3 µM | GI50 (CAKI-1 renal): 6.2 µM | TGI (CAKI-1 renal): > 22.4 µM | GI50 (SNB-75 CNS): 4.83 µM | TGI (SNB-75 CNS): > 22 µM | GI50 (HL-60(TB) leukemia): 6.39 µM | TGI (HL-60(TB) leukemia): 19.2 µM | GI50 (SK-OV-3 ovarian): 9.35 µM | TGI (SK-OV-3 ovarian): > 25 µM | GI50 (RPMI-8226 leukemia): 6.13 µM | TGI (RPMI-8226 leukemia): 20.7 µM | GI50 (UO-31 renal): 6.7 µM | TGI (UO-31 renal): > 25 µM | GI50 (MCF7 breast): 7.24 µM | TGI (MCF7 breast): > 25 µM | GI50 (OVCAR-8 ovarian): 10.2 µM | TGI (OVCAR-8 ovarian): > 25 µM | GI50 (NCI-H226 lung): 6.88 µM | TGI (NCI-H226 lung): > 25 µM | GI50 (786-0 renal): 10.2 µM | TGI (786-0 renal): > 25 µM | GI50 (COLO 205 colon): 10.8 µM | TGI (COLO 205 colon): > 25 µM | GI50 (A549 NSCLC): 6.72 µM | TGI (A549 NSCLC): > 25 µM | GI50 (SW-620 colon): 8.91 µM | TGI (SW-620 colon): > 25 µM | GI50 (RXF 393 renal): 6.47 µM | TGI (RXF 393 renal): > 24.2 µM | GI50 (SK-MEL-2 melanoma): 8.19 µM | TGI (SK-MEL-2 melanoma): 17.2 µM | GI50 (NCI/ADR-RES ovarian): 11.6 µM | TGI (NCI/ADR-RES ovarian): > 25 µM | GI50 (U251 CNS): 4.32 µM | TGI (U251 CNS): > 25 µM | GI50 (CCRF-CEM leukemia): 6.8 µM | TGI (CCRF-CEM leukemia): > 22 µM | GI50 (K-562 leukemia): 10.3 µM | TGI (K-562 leukemia): > 25 µM | GI50 (NCI-H23 lung): 11.5 µM | TGI (NCI-H23 lung): > 25 µM | GI50 (IGROV1 ovarian): 12.9 µM | TGI (IGROV1 ovarian): > 25 µM | GI50 (DU-145 prostate): 12 µM | TGI (DU-145 prostate): > 25 µM | GI50 (NCI-H460 lung): 8 µM | TGI (NCI-H460 lung): > 25 µM | GI50 (A498 renal): 4.25 µM | TGI (A498 renal): 12.5 µM | GI50 (T-47D breast): 8.43 µM | TGI (T-47D breast): > 25 µM | GI50 (HT29 colon): 8.83 µM | TGI (HT29 colon): > 25 µM | GI50 (HCT-15 colon): 7.01 µM | TGI (HCT-15 colon): > 25 µM | GI50 (MDA-MB-231 breast): 12.7 µM | TGI (MDA-MB-231 breast): > 25 µM | GI50 (ACHN renal): 9.24 µM | TGI (ACHN renal): > 25 µM | GI50 (MALME-3M melanoma): > 23.1 µM | TGI (MALME-3M melanoma): > 25 µM | GI50 (OVCAR-4 ovarian): 5.16 µM | TGI (OVCAR-4 ovarian): > 25 µM | GI50 (BT-549 breast): 7.85 µM | TGI (BT-549 breast): > 25 µM | GI50 (UACC-62 melanoma): 11.6 µM | TGI (UACC-62 melanoma): > 25 µM | GI50 (MDA-MB-435): 9.12 µM | TGI (MDA-MB-435): > 25 µM | GI50 (SN12C renal): 8.52 µM | TGI (SN12C renal): > 25 µM | GI50 (SK-MEL-5 melanoma): 7.51 µM | TGI (SK-MEL-5 melanoma): 24.9 µM | GI50 (KM12 colon): 10.8 µM | TGI (KM12 colon): > 25 µM | GI50 (UACC-257 melanoma): 8.09 µM | TGI (UACC-257 melanoma): > 25 µM

From PubChem BioAssay (NCI)
